{"source": "patent US11008286B2", "about": "“Amino mercaptan compound and preparation method therefor and use thereof in protection against radiation” (Institute of Radiation Medicine Chinese Academy of Medical …, priority 2016, dated 2021)", "key": {"[1]": {"system": "C57 male mice", "test": "Example G: effect of stereoisomerism on survival rate of mice under 7.5Gy irradiation", "type": "in vivo", "details": "200 mg/kg IP 30 min before irradiation; for deaths: 9 mice per group", "source_text": "Laboratory animals: C57 male mice, 19-21 g, purchased from Beijing HFK Bioscience Co. Ltd., license number SCXK (Beijing), 9 mice in each group."}, "[2]": {"system": "C57 male mice", "details": "for survival rates compared with amifostine: absorbed dose 6.8Gy and 7.2Gy", "experimental": "Laboratory animals: C57 male mice, 8-10 weeks old, 20-22 g, were divided into 4 groups, 5 or 10 or 15 or 20 or 25 mice in each group.\nObservation index: The death and weight of the mice were recorded, and the survival rate was calculated on the 30th day."}, "[3]": {"system": "C57BL/6 mice", "test": "Example A: 30-day survival of mice after whole-body 137Cs γ-ray irradiation", "type": "in vivo", "details": "200 mg/kg intraperitoneally", "method": "Material: The gamma ray irradiation device is a ^137Cs irradiator, with a dose rate of 0.7Gy/min. C57BL/6 mice, male, weighing 21-22 g, purchased from Beijing HFK Bioscience Co. Ltd., certificate number SCXK (Beijing) 2014-0004, grouped as: no irradiation group, irradiation and blank solvent group, irradiation and administration group, with 5 mice in each group.\nThe 30-day survival of the mice in each group was observed, the survival rates were calculated, the body weights were followed, and the organs and white blood cells of mice in each group were compared after 30 days.\nResults: At the same administration dose of the four compounds (200 mg/kg, one dose at 24 hours before irradiation and one dose at 30 minutes before irradiation), one-time whole body irradiation with 6.8Gy, 7.2Gy and 7.5Gy ^137Cs gamma rays was performed, respectively, compared with the radiation and blank solvent group. The 30-day survival rate of mice was 100% when compound 1 was used in the cases of irradiations of 6.8Gy and 7.2Gy, respectively. The effects of normal control group and compound 1, compound 2, compound 3 and compound 4 on organs and leukocytes in mice 30 days after irradiation with 7.2Gy are shown in FIG. 4. The effects of normal control group and compound 1 on organs and leukocytes in mice 30 days after irradiation with 6.8Gy and 7.5Gy, respectively, are shown in FIGS. 2 and 6."}, "[4]": {"system": "C57 male mice", "type": "in vivo", "details": "no irradiation, 30-day", "method": "Administration and grouping: Each group was intraperitoneally injected with one corresponding dose of amifostine. • Each group was intraperitoneally injected with one corresponding dose of Example 17 (IP).\nThe 30-day survival rate of mice in each group was recorded."}, "[5]": {"details": "6.8Gy, 200 mpk IP 30 min before irradiation, day 30"}, "[6]": {"details": "7.5Gy, 400 mpk IP 90 min before irradiation"}, "[7]": {"details": "7.5Gy, 800 mpk IP 90 min before irradiation"}}, "note": "Counter-ions that a name gives are not always drawn. Like-named read-outs stand apart in the source and are kept apart here. Where a SMILES comes first, the peptide text is derived from it. [ ]: non-standard residue; d: D form.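 Wherever survival rates compared with amifostine is given: mice aged 8-10 weeks, weighing 20-22 g, with deaths logged and survival rate computed on day 30.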", "data": [{"smiles": "CNC(=O)C(CS)NC(=O)C(CS)NC", "note": "(racemic) [Example 19, 3-mercapto-N-(3-mercapto-1-(methylamino)-1-oxopropan-2-yl)-2-(methylamino) propionamide trifluoroacetate]", "values": [{"measurement": "Survival number/Test number", "setting": "[1]", "result": "2/9"}, {"measurement": "deaths", "setting": "[1]", "result": "(7 deaths)"}]}, {"smiles": "CNC(=O)C(CS)NC(=O)C(CS)NC(=O)C(CS)NC", "note": "(racemic) [Example 20, (RS)-3-mercapto-N—((RS)-3-mercapto-1-(((RS)-3-mercapto-1-(methylamino)-1-oxopropan-2-yl)amino)-1-oxopropan-2-yl)-2-(methylamino) propanamide trifluoroacetate]", "values": [{"measurement": "Survival number/Test number", "setting": "[1]", "result": "1/9"}, {"measurement": "deaths", "setting": "[1]", "result": "(8 deaths)"}]}, {"smiles": "N[C@H](CS)C(=O)O", "note": "[D-Cys, D-cysteine, reference compound]", "values": [{"measurement": "Survival number/Test number", "setting": "[1]", "result": "0/9"}, {"measurement": "deaths", "setting": "[1]", "result": "(9 deaths)"}]}, {"smiles": "NC(=O)[C@H](CS)NC(=O)[C@@H](N)CS", "note": "[Example 1, (R)-2-amino-N—((R)-1-amino-3-mercapto-1-oxopropan-2-yl)-3-mercaptopropanamide trifluoroacetate] (H-Cys-Cys-NH2)", "values": [{"measurement": "Survival number/Test number", "setting": "[2]; 7.2Gy, 200 mpk IP, day 30", "result": "6/10"}, {"measurement": "Survival rate", "setting": "[2]; 7.2Gy, 200 mpk IP, day 30", "result": 60, "unit": "%"}, {"measurement": "survival rates compared with amifostine", "setting": "[2]", "result": "survival rates comparable to those using amifostine"}, {"measurement": "Survival number/Test number", "setting": "[1]", "result": "1/9"}, {"measurement": "Survival rate", "setting": "[1]", "result": "approximately 11%"}, {"measurement": "deaths", "setting": "[1]", "result": "(8 deaths)"}, {"measurement": "30-day survival rate", "setting": "[3]; 6.8Gy 137Cs γ rays whole body", "result": 100, "unit": "%"}, {"measurement": "30-day survival rate", "setting": "[3]; 7.2Gy 137Cs γ rays whole body", "result": 100, "unit": "%"}]}, {"smiles": "CNC(=O)[C@H](CS)NC(=O)[C@H](CS)NC", "note": "[Example 2, (R)-3-mercapto-N—((R)-3-mercapto-1-(methylamino)-1-oxopropan-2-yl)-2-(methylamino) propionamide trifluoroacetate]", "values": [{"measurement": "Survival number/Test number", "setting": "[2]; 7.2Gy, 200 mpk IP, day 30", "result": "10/15"}, {"measurement": "Survival rate", "setting": "[2]; 7.2Gy, 200 mpk IP, day 30", "result": 66.67, "unit": "%"}, {"measurement": "survival rates compared with amifostine", "setting": "[2]", "result": "survival rates comparable to those using amifostine"}, {"measurement": "Survival number/Test number", "setting": "[1]", "result": "4/9"}, {"measurement": "Survival rate", "setting": "[1]", "result": "approximately 44%"}, {"measurement": "deaths", "setting": "[1]", "result": "(5 deaths)"}]}, {"smiles": "NC(=O)[C@H](CS)NC(=O)[C@H](CS)NC(=O)[C@@H](N)CS", "note": "[Example 3, (R)-2-amino-N—((R)-1-(((R)-1-amino-3-mercapto-1-oxopropan-2-yl)amino)-3-mercapto-1-oxopropan-2-yl)-3-mercaptopropanamide trifluoroacetate] (H-Cys-Cys-Cys-NH2)", "values": [{"measurement": "Survival number/Test number", "setting": "[2]; 7.2Gy, 200 mpk IP, day 30", "result": "10/15"}, {"measurement": "Survival rate", "setting": "[2]; 7.2Gy, 200 mpk IP, day 30", "result": 66.67, "unit": "%"}, {"measurement": "survival rates compared with amifostine", "setting": "[2]", "result": "survival rates comparable to those using amifostine"}, {"measurement": "Survival number/Test number", "setting": "[1]", "result": "2/9"}, {"measurement": "Survival rate", "setting": "[1]", "result": "approximately 22%"}, {"measurement": "deaths", "setting": "[1]", "result": "(7 deaths)"}]}, {"smiles": "CNC(=O)[C@@H](CS)NC(=O)[C@@H](CS)NC(=O)[C@@H](CS)NC", "note": "[Example 8, (S)-3-mercapto-N—((S)-3-mercapto-1-(((S)-3-mercapto-1-(methylamino)-1-oxopropan-2-yl)amino)-1-oxopropan-2-yl)-2-(methylamino) propanamide]", "values": [{"measurement": "Survival number/Test number", "setting": "[2]; 7.2Gy, 200 mpk IP, day 30", "result": "1/5"}, {"measurement": "Survival rate", "setting": "[2]; 7.2Gy, 200 mpk IP, day 30", "result": 20, "unit": "%"}, {"measurement": "survival rates compared with amifostine", "setting": "[2]", "result": "survival rates comparable to those using amifostine"}]}, {"smiles": "NC(=O)[C@H](CS)NC(=O)[C@H](N)CS", "note": "[Example 17, (S)-2-amino-N—((R)-1-amino-3-mercapto-1-oxopropan-2-yl)-3-mercaptopropanamide trifluoroacetate] (H-[dC]-Cys-NH2)", "values": [{"measurement": "Survival number/Test number", "setting": "[4]; 400 mpk IP", "result": "5/5"}, {"measurement": "Survival number/Test number", "setting": "[4]; 800 mpk IP", "result": "5/5"}, {"measurement": "Survival number/Test number", "setting": "[4]; 1600 mpk IP", "result": "4/5"}, {"measurement": "Survival number/Test number", "setting": "[2]; [5]", "result": "5/5"}, {"measurement": "Survival rate", "setting": "[2]; [5]", "result": 100, "unit": "%"}, {"measurement": "Survival number/Test number", "setting": "[2]; 7.2Gy, 200 mpk IP, day 30", "result": "9/10"}, {"measurement": "Survival rate", "setting": "[2]; 7.2Gy, 200 mpk IP, day 30", "result": 90, "unit": "%"}, {"measurement": "Survival number/Test number", "setting": "[2]; 7.5Gy, 200 mpk IP, day 30", "result": "0/5"}, {"measurement": "Survival rate", "setting": "[2]; 7.5Gy, 200 mpk IP, day 30", "result": 0, "unit": "%"}, {"measurement": "Survival number/Test number", "setting": "[2]; [6]", "result": "0/5"}, {"measurement": "Survival rate", "setting": "[2]; [6]", "result": 0, "unit": "%"}, {"measurement": "Survival number/Test number", "setting": "[2]; [7]", "result": "0/5"}, {"measurement": "Survival rate", "setting": "[2]; [7]", "result": 0, "unit": "%"}, {"measurement": "survival rates compared with amifostine", "setting": "[2]", "result": "survival rates comparable to those using amifostine"}]}, {"smiles": "NC(=O)[C@@H](CS)NC(=O)[C@@H](N)CS", "note": "[Example 18, (R)-2-amino-N—((S)-1-amino-3-mercapto-1-oxopropan-2-yl)-3-mercaptopropanamide trifluoroacetate] (H-Cys-[dC]-NH2)", "values": [{"measurement": "Survival number/Test number", "setting": "[2]; 7.2Gy, 200 mpk IP, day 30", "result": "4/5"}, {"measurement": "Survival rate", "setting": "[2]; 7.2Gy, 200 mpk IP, day 30", "result": 80, "unit": "%"}, {"measurement": "survival rates compared with amifostine", "setting": "[2]", "result": "survival rates comparable to those using amifostine"}]}, {"smiles": "N[C@@H](CS)C(=O)O", "note": "[L-Cys, L-cysteine, reference compound]", "values": [{"measurement": "Survival number/Test number", "setting": "[1]", "result": "1/9"}, {"measurement": "deaths", "setting": "[1]", "result": "(8 deaths)"}]}]}
